target: T1, human macrophage elastase (HME/hMMP-12) (Homo sapiens, UniProt P39900); assay: In vitro HME inhibition test (standard or high-sensitivity); assay type: biochemical; conditions: in some cases mean values
T1 construct: 0.5 nM HME; purchased R&D Systems 917-MP
Method in brief: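 Fluorogenic assay: 0.5 nM autoactivated HME with 5 µM Mca-Pro-Leu-Gly-Leu-Glu-Glu-Ala-Dap(Dnp)-NH2 in HEPES pH 7.4 buffer (NaCl, CaCl2, ZnCl2, EDTA, Brij), 2 h at 37 °C; ex 323/em 393 nm. IC50 from fluorescence versus concentration. High-sensitivity format: ~0.05 nM enzyme, ~16 h incubation.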

T1 sequence (P39900 106-470): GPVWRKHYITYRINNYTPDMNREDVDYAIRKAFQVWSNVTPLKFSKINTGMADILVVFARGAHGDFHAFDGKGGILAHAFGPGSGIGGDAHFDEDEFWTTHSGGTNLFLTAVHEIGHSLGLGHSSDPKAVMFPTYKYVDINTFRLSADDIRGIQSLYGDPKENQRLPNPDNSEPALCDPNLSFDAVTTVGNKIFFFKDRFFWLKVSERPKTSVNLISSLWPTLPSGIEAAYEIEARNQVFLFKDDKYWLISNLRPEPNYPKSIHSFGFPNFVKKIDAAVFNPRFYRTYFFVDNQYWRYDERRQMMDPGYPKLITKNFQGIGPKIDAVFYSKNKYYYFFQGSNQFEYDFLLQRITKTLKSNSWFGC

Question: With CCCCCCOc1ccc(C(=O)[C@@H]2CC[C@H](Cn3nnc4ccc(C)cc4c3=O)[C@H]2C(=O)O)cc1 (single isomer, unassigned) [Example 122, (−)-(1RS,2RS,5SR)-2-[4-(Hexyloxy)benzoyl]-5-[(6-methyl-4-oxo-1,2,3-benzotriazin-3(4H)-yl)methyl]cyclopentanecarboxylic acid] as the molecule, how does the IC50 read?
Answer: The IC50 was 190 nM.

Question: With CCCCCOc1ccc(C(=O)[C@@H]2CC[C@H](Cn3nnc4ccc(C)cc4c3=O)[C@H]2C(=O)O)cc1 (single isomer, unassigned) [Example 124, (+)-(1RS,2SR,5RS)-2-[(6-Methyl-4-oxo-1,2,3-benzotriazin-3(4H)-yl)methyl]-5-[4-(pentyloxy)benzoyl]cyclopentanecarboxylic acid] as the molecule, how does the IC50 read?
Answer: The IC50 was 0.062 nM.

Question: How did the IC50 turn out when CCCCCOc1ccc(C(=O)[C@@H]2CC[C@H](Cn3nnc4ccc(C)cc4c3=O)[C@H]2C(=O)O)cc1 (single isomer, unassigned) [Example 125, (−)-(1RS,2SR,5RS)-2-[(6-Methyl-4-oxo-1,2,3-benzotriazin-3(4H)-yl)methyl]-5-[4-(pentyloxy)benzoyl]cyclopentanecarboxylic acid] was run?
Answer: The IC50 was 6.7 nM.

Question: Which IC50 does the source give for COC(=O)Nc1cccc(COc2ccc(C(=O)[C@H]3CC[C@@H](Cn4nnc5ccc(C(F)(F)F)cc5c4=O)[C@@H]3C(=O)O)cc2)c1 (stereo in doubt) [Example 30, (+/−)-(1RS,2RS,5SR)-2-{4-({3-[(Methoxycarbonyl)amino]benzyl}oxy)benzoyl}-5-{[4-oxo-6-(trifluoromethyl)-1,2,3-benzotriazin-3(4H)-yl]methyl}cyclopentanecarboxylic acid] here?
Answer: The IC50 was 0.037 nM.

Question: For “(−)-(1RS,2RS,5SR)-2-{4-[(3,4-Dichlorobenzyl)oxy]benzoyl}-5-{[4-oxo-6-(trifluoromethyl)-1,2,3-benzotriazin-3(4H)-yl]methyl}cyclopentanecarboxylic acid [Example 29]”, which IC50 is on record?
Answer: Its IC50 is 4.1 nM.

Question: “(−)-(1RS,2RS,5SR)-2-{4-[Cyclohexyl)methyl)sulphanyl]benzoyl}-5-{[4-oxo-6-(trifluoromethyl)-1,2,3-benzotriazin-3(4H)-yl]methyl}cyclopentanecarboxylic acid [Example 87]” was tested. Which IC50 did it give?
Answer: Its IC50 is 8.3 nM.

Question: Which IC50 does the source give for “(−)-(1RS,2SR,5RS)-2-{[4-Oxo-6-(trifluoromethyl)-1,2,3-benzotriazin-3(4H)-yl]methyl}-5-{4-[(2-phenylethy)sulphanyl]benzoyl}cyclopentanecarboxylic acid [Example 84]” here?
Answer: Its IC50 is 33 nM.

system: rat hepatocytes; assay: Hepatocyte assay for determination of metabolic stability; assay type: in vitro ADME; conditions: after incubation with rat hepatocytes
Procedure: The metabolic stability of test compounds towards hepatocytes is determined by incubating the compounds at low concentrations (preferably below or around 1 μM) and at low cell counts (preferably at 1*10^6 cells/ml) in order to ensure maximum linearity of kinetic conditions in the experiment. Seven samples from the incubation solution are taken for the LC-MS analysis within a fixed time pattern, in order to determine the half-life (i.e. the degradation) of the particular compound. This half life is used to calculate various “Clearance” parameters (CL) and “Fmax” values (see below).
The CL and Fmax values are a measure of the phase 1 and phase 2 metabolism of the compounds in the hepatocytes. In order to minimize the influence of the organic solvent on the enzymes in the incubation batches, the concentration thereof is generally limited to 1% (acetonitrile) or 0.1% (DMSO).
For all species and breeds, a hepatocyte cell count in the liver of 1.1*10^8 cells/g of liver is expected.
The parameters calculated and the meanings thereof are: • Fmax well-stirred [%] maximum possible bioavailability after oral administration • Calculation: (1−CLblood well-stirred/QH)*100 • CLblood well-stirred [L/(h*kg)] calculated blood clearance (well-stirred model) • Calculation: (QH*CL′intrinsic)/(QH+CL′intrinsic) • CL′intrinsic[ml/(min*kg)] maximum ability of the liver (of the hepatocytes) to metabolize a compound (assuming that the liver blood flow is not rate-limiting) • Calculation: CL′intrinsic, apparent*species-specific hepatocyte count [1.1*10^8/g liver]*species-specific liver weight [g/kg] • CL′intrinsic, apparent[ml/(min*mg)] normalizes the elimination constant by dividing it by the hepatocyte cell count x used (x*10^6/ml) • Calculation: ke1[1/min]/(cell count [x*10^6]/incubation volume [ml]) • (QH=species-specific liver blood flow).

Question: How did the “CLblood (calculated blood clearance, well-stirred)” value turn out when Cc1ccc2nnn(C[C@H]3CC[C@@H](C(=O)c4ccc(OCc5ccccc5)cc4)[C@@H]3C(=O)O)c(=O)c2c1 (racemic) [Example 92, (+)-(1RS,2RS,5SR)-2-[4-(Benzyloxy)benzoyl]-5-[(6-methyl-4-oxo-1,2,3-benzotriazin-3(4H)-yl)methyl]cyclopentanecarboxylic acid] was run?
Answer: Its value is 16.8 mL/min/kg.

Question: What about the “Fmax (maximum possible bioavailability after oral administration, well-stirred)” value of the same molecule?
Answer: Its value is 76.1%.

Question: What does the source list for Cc1ccc2nnn(C[C@H]3CC[C@@H](C(=O)c4ccc(OCc5ccc(F)cc5)cc4)[C@@H]3C(=O)O)c(=O)c2c1 (racemic) [Example 95, (+)-(1RS,2RS,5SR)-2-{4-[(4-Fluorobenzyl)oxy]benzoyl}-5-[(6-methyl-4-oxo-1,2,3-benzotriazin-3(4H)-yl)methyl]cyclopentanecarboxylic acid]?
Answer: CLblood (calculated blood clearance, well-stirred): 8.33 mL/min/kg; Fmax (maximum possible bioavailability after oral administration, well-stirred): 88.2%

Question: Cc1ccc2nnn(C[C@H]3CC[C@@H](C(=O)c4ccc(OCc5cccc(C(F)(F)F)c5)cc4)[C@@H]3C(=O)O)c(=O)c2c1 (racemic) [Example 101, (+)-(1RS,2SR,5RS)-2-[(6-Methyl-4-oxo-1,2,3-benzotriazin-3(4H)-yl)methyl]-5-(4-{[3-(trifluoromethyl)benzyl]oxy}benzoyl)cyclopentanecarboxylic acid] was tested. Which “CLblood (calculated blood clearance, well-stirred)” value did it give?
Answer: The value was 1.5 mL/min/kg.

Question: What about the “Fmax (maximum possible bioavailability after oral administration, well-stirred)” value of the same molecule?
Answer: Its value is 97.8%.

Question: How did the “CLblood (calculated blood clearance, well-stirred)” value turn out when Cc1ccc2nnn(C[C@H]3CC[C@@H](C(=O)c4ccc(OCc5cccc(Cl)c5)cc4)[C@@H]3C(=O)O)c(=O)c2c1 (racemic) [Example 104, (+)-(1RS,2RS,5SR)-2-{4-[(3-Chlorobenzyl)oxy]benzoyl}-5-[(6-methyl-4-oxo-1,2,3-benzotriazin-3(4H)-yl)methyl]cyclopentanecarboxylic acid] was run?
Answer: The value was 16.5 mL/min/kg.

Question: And the “Fmax (maximum possible bioavailability after oral administration, well-stirred)” value?
Answer: Its value is 76.3%.

Question: Cc1ccc2nnn(C[C@H]3CC[C@@H](C(=O)c4ccc(OCc5cccc(OC(F)(F)F)c5)cc4)[C@@H]3C(=O)O)c(=O)c2c1 (racemic) [Example 110, (+)-(1RS,2SR,5RS)-2-[(6-Methyl-4-oxo-1,2,3-benzotriazin-3(4H)-yl)methyl]-5-(4-{[3-(trifluoromethoxy)benzyl]oxy}benzoyl)cyclopentanecarboxylic acid] was tested. Which “CLblood (calculated blood clearance, well-stirred)” value did it give?
Answer: The value was 6.67 mL/min/kg.

Question: What about the “Fmax (maximum possible bioavailability after oral administration, well-stirred)” value of the same molecule?
Answer: Its value is 90.4%.

From patent US20170022171A1, “2,5-DISUBSTITUTED CYCLOPENTANECARBOXYLIC ACIDS AND THEIR USE” (Bayer Pharma Aktiengesellschaft, priority 2014, published 2017)
